Where “and” joins values, the source holds several entries; their conditions need not be identical. Equal values may be shown once.
Tests used:
[1] = in plasma; cited from earlier work
[2] = test system: mpkCCD cells; assay: Forskolin-induced cAMP production in mpkCCD cells; type: cell-based, mouse
Description: (§1) 152 Supplementary Methods
(§2) 154 We quantified cAMP production with the cAMP dynamic 2 assay kit (Cisbio Bioassays,
(§3) 155 Codolet, France), which is based on homogeneous time-resolved fluorescence (HTRF)
(§4) 156 technology, as previously described 1. For cells expressing the Apelin-R, 2000 CHO cells/well
(§5) 157 stably expressing rat apelinR-EGFP (clone B70) were added to the 384-well plate and
(§6) 158 stimulated with 5 µmol/l forskolin (FSK) and various concentrations (0.01 pmol/l to 100
(§7) For cells expressing the V2-R, HEK-
(§8) 160 293T cells were transiently transfected with the human V2-R (cDNA Resource Center), after
(§9) 161 48h, 4000 cells/well were added to white 384-well optiplates and stimulated either with 5
(§10) Cells were then lysed, and
(§11) 165 cAMP levels were determined in accordance with the kit manufacturer’s instructions.
(§12) 166 Stimulation was performed in stimulation buffer-IBMX (SBI) (Hank’s balanced salt solution
(§13) 167 (HBSS-Life Technology), 5 mmol/l Hepes, 0.1% BSA stabilizer (Perkin Elmer), 1 mmol/l
(§14) 168 isobutylmethylxanthine (IBMX, Sigma Aldrich, pH 7.4)). For cAMP assay with mpkCCD
(§15) 169 cells, the cells were grown on 12 mm Transwell filters (0.4 μm pore size, Corning Costar,
(§16) 170 Cambridge, MA) until they reach confluency (4-5 days). For forskolin experiments, culture
(§17) 171 media was replaced with SBI in apical and basolateral compartments. After 30 min of […]

[3] = test system: hyponatremic rats; assay: Plasma AVP and apelin-IR levels in hyponatremic rats (RIA); type: in vivo, rat
Description: (§18) 187 Apelin radioimmunoassay
189 until use for apelin RIA.
The supernatants were collected and
The samples were dried and dissolved in
201 centrifuged (17000 x g, 4°C, 20 min). The supernatant (4 ml) was collected, and mixed with
The columns were then treated as described in
Samples (0.1ml) w ere mixed with 125I-
(§19) 212 used this radioligand instead of [Glp65, Nle75, Tyr77] [125I]-apelin13 since the substitution of
(§20) 214 derivatives as described previously by 3,4.
216 incubated for 10 min at room temperature.
This antiserum identified the apelin present in the
Most of the apelin in human plasma was
252 TechMedILL platfor m (Illkirch) reviewed and approved by the agriculture ministry regulating
256 Male Sprague-Dawley rats were killed by decapitation, and trunk blood was collected on ice
257 (into 50 µl of 0.3M EDTA (pH 7.4) per 1 ml of blood). Samples were centrifuged (2,600 x g,
258 4°C, 20 min), and the resulting plasma was split into 500 µl aliquots, to which we added 168
259 µl of 3N HCl before storage at -80°C. The AVP RIA was performed as previously described
260 5, using a specific AVP-[Arg8] antibody (final dilution, 1/4.5) and [125I]-(Tyr2Arg8)-AVP
261 (2200 Ci/mmol, Perkin-Elmer, Billerica, MA; 15000 dpm) as a tracer. […]

[4] = test system: control Sprague-Dawley rats; assay: Effects of i.v. administration on urine output, urine osmolality and water intake in normonatremic rats; type: in vivo, rat
Description: Male Swiss mice (25–30 g, 4–6 weeks) and male Sprague–Dawley rats (210–230 g, 6–8 weeks) were obtained from Charles River Laboratories (L’Arbresle, France). While housed in our animal facility, they were given free access to normal chow and water, and they were maintained under 12-h light/dark cycles throughout the study. Temperature was maintained between 18 and 22 °C, and humidity between 40 and 60%. When required for i.v. administration, a right femoral venous catheter was implanted in the rats, by tunneling under the skin, under isoflurane anesthesia (4% for induction, 2% for maintenance). Meloxicam (Metacam) was administered postoperatively (1 mg/kg s.c.) for analgesia.

[5] = test system: mpkCCD cells; assay: dDAVP-induced cAMP production in mpkCCD cells; type: cell-based, mouse; details: 10 µmol/l compound, 10 nmol/l dDAVP, 60 min 37 °C
Description: as §1, §2, §3, §4, §5, §6, §7, §8, §9, §10, §11, §12, §13, §14, §15, §16, §17

[6] = in vivo; details: mice, 30 min after s.c. 900 nmol/kg
Description: as §18
188 Plasma samples (0.5 ml) were acidified with 0.175 ml of 3 mol/l HCl and stored at -80°C
189 until use for apelin RIA. Before thawing the sample on ice, 0.05% BSA was added, and the
190 samples were centrifuged at 20000 x g at 4°C for 10 min. The supernatants were collected and
191 the pH was adjusted to 6.5 with 10 mol/l NaOH and 2 mol/l Tris-HCl buffer (pH 7.4). Apelin
192 was extracted from plasma by mixing the supernatant with 0.3 ml of 0.1% BSA in H2O and 1
193 ml of 1% trifluoroacetic acid (TFA) - 0.1% BSA, and running the mixture on a Sep-Pak C18
194 cartridge (Waters) previously washed with 2 ml 100% acetonitrile and equilibrated with 5 ml
195 1% TFA - 0.1% BSA. The columns then were washed with 3 ml 1% TFA - 0.1% BSA and
196 apelin was eluted with 1.5 ml 100% acetonitrile. […]
208 Plasma or brain apelin levels w ere deter mined by RIA. Samples (0.1ml) w ere mixed with 125I-
211 dilution: 1/4500) to give a total volume of 0.2 ml and were incubated at 4°C overnight. We
as §19, §20
215 We then added 0.5 ml of Amerlex (Amersham RPN 510), and the resulting mixture was
216 incubated for 10 min at room temperature. The tubes were centrifuged at 2600 x g at 4°C for
217 20 min. The supernatant was removed and the radioactivity of the precipitates was measured. […]

[7] = target: T1, rat apelin-R (Rattus norvegicus, UniProt Q9JHG3); assay: Radioligand binding ([125I]-pE13F) to membranes from CHO cells stably expressing rat apelin-R-EGFP; details: 1 h 20 °C, pH 7.4, new batch of LIT01-196
T1 construct: expressed in transfected cells; membrane preparation
T1 sequence (Q9JHG3 1-377): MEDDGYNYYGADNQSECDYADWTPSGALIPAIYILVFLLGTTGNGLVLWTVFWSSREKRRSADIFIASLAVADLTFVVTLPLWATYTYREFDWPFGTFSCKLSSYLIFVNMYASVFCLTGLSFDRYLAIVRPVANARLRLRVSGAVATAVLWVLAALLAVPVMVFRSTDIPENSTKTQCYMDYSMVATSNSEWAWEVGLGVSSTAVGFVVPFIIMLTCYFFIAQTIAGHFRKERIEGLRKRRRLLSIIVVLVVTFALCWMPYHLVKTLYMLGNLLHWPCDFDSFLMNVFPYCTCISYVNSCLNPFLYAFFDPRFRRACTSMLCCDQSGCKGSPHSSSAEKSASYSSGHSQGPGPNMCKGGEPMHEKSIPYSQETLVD
Description: Membranes from CHO cells stably expressing rat apelin-R-EGFP were prepared as previously described[23]. […] The reaction was stopped by adding ice-cold binding buffer and filtering through Whatman GF/C filters. The filters were washed and radioactivity was counted with a Wizard 1470 Wallac gamma counter (PerkinElmer, Turku, Finland).

[8] = 15 nmol/kg i.v., control rats, 24 h, n = 6

CSCC[C@H](NC(=O)[C@@H]1CCCN1C(=O)CNC(=O)[C@H](CCCCN)NC(=O)[C@H](Cc1c[nH]cn1)NC(=O)[C@H](CO)NC(=O)[C@H](CC(C)C)NC(=O)[C@H](CCCNC(=N)N)NC(=O)[C@@H]1CCCN1C(=O)[C@H](CCCNC(=N)N)NC(=O)[C@H](CCC(N)=O)NC(=O)[C@H](CCCNC(=N)N)NC(=O)[C@H](CCCNC(=N)N)NC(=O)[C@H](Cc1ccccc1)NC(=O)[C@H](CCCCN)NC(=O)CCC(F)(F)C(F)(F)C(F)(F)C(F)(F)C(F)(F)C(F)(F)C(F)(F)C(F)(F)F)C(=O)N1CCC[C@H]1C(=O)N[C@@H](Cc1ccccc1)C(=O)O [LIT01-196]
plasma half-life [1]: > 24 h | inhibition of cAMP production induced by forskolin ([2]; 1 µmol/l compound, forskolin 1 µmol/l, mpkCCD cells, 30 min 37 °C): 32% | Forskolin-induced cAMP production, value (Fig 2C) ([2]; Forskolin + peptide, single measurements): 89 | plasma AVP levels versus AVP-treated rats receiving saline ([3]; 900 nmol/kg s.c., 3 h): No significant difference | increase in plasma apelin-IR/AVP ratio relative to saline ([3]; 900 nmol/kg s.c., 3 h, hyponatremic rats): 518% | plasma apelin-IR material levels, higher than AVP + saline ([3]; 900 nmol/kg s.c., 3 h, n = 5): 372% | Plasma AVP ([3]; AVP 30 ng/h rats, LIT01-196 900 nmol/kg SC, individual animals (Fig. 6A source data)): 26.2192 and 47.0941 and 28.2654 and 46.4247 and 26.8381 | Plasma apelin ([3]; AVP 30 ng/h rats, LIT01-196 900 nmol/kg SC, individual animals (Fig. 6B source data)): 2578 and 2160 and 2508 and 1740 and 2599 | Apelin to AVP ratio ([3]; AVP 30 ng/h rats, LIT01-196 900 nmol/kg SC, individual animals (Fig. 6C source data)): 98.309 and 45.8759 and 88.7295 and 37.4882 and 96.8538 | decrease in urine osmolality relative to saline [4, 8]: 38% | increase in urine output relative to saline [4, 8]: 95% | water intake ([4]; i.v., K17F 400 nmol/kg, LIT01-196 15 nmol/kg, 24 hours): did not induce a significant change | inhibition of dDAVP-induced cAMP production [5]: 79% | plasma apelin-IR levels, times basal levels [6]: 9.7 times | plasma apelin-IR levels ([6]; basal 1.3 ± 0.073, n = 5): 12.4 ± 2.5 pmol/mL | Ki [7]: 0.34 ± 0.05 nM

From PMC7804859, “A metabolically stable apelin-17 analog decreases AVP-induced antidiuresis and improves hyponatremia” (Nature Communications, 2021)
